Test results reported in PubChem BioAssay (NCI).
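The compound was tested at five concentrations on cells cultured in 96-well plates, with a 48-hour exposure period. GI50 marks 50% less growth. The concentration for full growth arrest is given as TGI.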

Each compound was assayed on A498 renal (assay: inhibition of tumour cell growth, NCI panel, 48 h).

Structure (SMILES)	GI50	TGI
CC[CH2][Sn]([CH2]CC)([O]C(=O)c1cccnc1SC)[O][Sn]([CH2]CC)([CH2]CC)[O]C(=O)c1cccnc1SC	0.246 µM	0.629 µM
Oc1ccc(CN2CCC(N3CCCCC3)CC2)c2cccnc12	> 100 µM	> 100 µM
CC[C@@]1(O)C(=O)OCc2c1cc1n(c2=O)Cc2c-1nc1cc3c(cc1c2CCl)OCO3	< 0.0151 µM	0.753 µM
N#Cc1ccc(O)c(C2=NCC(c3cccc(Oc4ccccc4)c3)O2)c1 (configuration not stated)	2.06 µM	22.3 µM
CC1(C)OC2[C@@H](CNC(=O)NC(=O)NC(=O)CI)O[C@@H](n3cnc4c(NC(=O)Nc5ccccc5)ncnc43)[C@H]2O1 (some centres not stated)	18 µM	> 50 µM
COc1cc(C2=C(c3ccccc3)COC2=O)cc(OC)c1OC	6.87 µM	> 66.1 µM
COc1cc(C2NC(=O)c3ccccc3N2)ccc1OCCCCCOc1c(OC)cc(C2=NOC(c3cc(OC)c(OC)c(OC)c3)C2)cc1OC (configuration not stated)	19.5 µM	> 76.8 µM
CS(=O)(=O)c1ccc([C@H]2O[C@@H](CO)C[C@]2(O)c2ccc(S(C)(=O)=O)cc2)cc1	> 100 µM	> 100 µM
CC(=O)OC[C@]1(C)C=C2C(=O)[C@](C)(O)C3(CC3)C(C)=C2[C@H]1O	0.148 µM	0.366 µM
Oc1ccc(NCc2nc3ccccc3[nH]2)cc1	14.7 µM	> 100 µM
C[C@]12CC[C@H]3[C@@H](CC=C4C[C@@H](O)CC[C@@]43C)[C@@H]1CC[C@@H]2N(CCO)CCO	–	73 µM
O=C1c2cc(Cl)ccc2S(=O)(=O)c2c(NCCCNCCO)nc3ccccc3c21	2.95 µM	9.34 µM
CC(C)(C)OC(=O)N1CCc2c(sc3ncnc(N/N=C/c4cccc5ccccc45)c23)C1	2.3 µM	9.79 µM
CC[C@@H]1CN(C)[C@H]2Cc3c([nH]c4ccccc34)C(=O)C[C@H]1C2C(=O)OC (some centres not stated)	–	> 100 µM
CCN(CC)c1ccc(/C=C/c2ccc3cc(C)ccc3[n+]2CC)cc1	0.149 µM	1.78 µM
Cc1ccc2c(c1)[n+]([O-])c(N)n[n+]2[O-]	–	> 100 µM
COC1/C=C\C=C(/C)C(=O)NC2=CC(=O)C(=O)C(=C2O)CC(C)CC(OC)C(O)C(C)/C=C(\C)C1OC(N)=O (configuration not stated)	–	> 100 µM
O=c1[nH]ncc(Br)c1Br	11.8 µM	24 µM
COc1ccc(-c2cc(=O)c3c(OC)c(OC)c(OC)cc3o2)cc1	–	84 µM

Each compound was assayed on HS 578T breast (assay: inhibition of tumour cell growth, NCI panel, 48 h).

Structure (SMILES)	GI50	TGI
CC[CH2][Sn]([CH2]CC)([O]C(=O)c1cccnc1SC)[O][Sn]([CH2]CC)([CH2]CC)[O]C(=O)c1cccnc1SC	1.5 µM	6.36 µM
Oc1ccc(CN2CCC(N3CCCCC3)CC2)c2cccnc12	17.6 µM	> 100 µM
CC[C@@]1(O)C(=O)OCc2c1cc1n(c2=O)Cc2c-1nc1cc3c(cc1c2CCl)OCO3	1.29 µM	> 54.1 µM
N#Cc1ccc(O)c(C2=NCC(c3cccc(Oc4ccccc4)c3)O2)c1 (configuration not stated)	3.03 µM	> 100 µM
CC1(C)OC2[C@@H](CNC(=O)NC(=O)NC(=O)CI)O[C@@H](n3cnc4c(NC(=O)Nc5ccccc5)ncnc43)[C@H]2O1 (some centres not stated)	12.5 µM	37.8 µM
COc1cc(C2=C(c3ccccc3)COC2=O)cc(OC)c1OC	5.61 µM	> 90 µM
COc1cc(C2NC(=O)c3ccccc3N2)ccc1OCCCCCOc1c(OC)cc(C2=NOC(c3cc(OC)c(OC)c(OC)c3)C2)cc1OC (configuration not stated)	15.7 µM	> 82 µM
CS(=O)(=O)c1ccc([C@H]2O[C@@H](CO)C[C@]2(O)c2ccc(S(C)(=O)=O)cc2)cc1	> 100 µM	> 100 µM
CC(=O)OC[C@]1(C)C=C2C(=O)[C@](C)(O)C3(CC3)C(C)=C2[C@H]1O	0.296 µM	1.09 µM
Oc1ccc(NCc2nc3ccccc3[nH]2)cc1	15 µM	79.2 µM
C[C@]12CC[C@H]3[C@@H](CC=C4C[C@@H](O)CC[C@@]43C)[C@@H]1CC[C@@H]2N(CCO)CCO	–	> 100 µM
O=C1c2cc(Cl)ccc2S(=O)(=O)c2c(NCCCNCCO)nc3ccccc3c21	2.68 µM	14.9 µM
CC(C)(C)OC(=O)N1CCc2c(sc3ncnc(N/N=C/c4cccc5ccccc45)c23)C1	2.4 µM	> 100 µM
CC[C@@H]1CN(C)[C@H]2Cc3c([nH]c4ccccc34)C(=O)C[C@H]1C2C(=O)OC (some centres not stated)	–	> 100 µM
CCN(CC)c1ccc(/C=C/c2ccc3cc(C)ccc3[n+]2CC)cc1	1.01 µM	69 µM
Cc1ccc2c(c1)[n+]([O-])c(N)n[n+]2[O-]	–	> 100 µM
COC1/C=C\C=C(/C)C(=O)NC2=CC(=O)C(=O)C(=C2O)CC(C)CC(OC)C(O)C(C)/C=C(\C)C1OC(N)=O (configuration not stated)	–	> 100 µM
O=c1[nH]ncc(Br)c1Br	2.23 µM	9.51 µM
COc1ccc(-c2cc(=O)c3c(OC)c(OC)c(OC)cc3o2)cc1	–	> 100 µM

These compounds were tested on LOX IMVI melanoma (assay: inhibition of tumour cell growth, NCI panel, 48 h).

Structure (SMILES)	GI50	TGI
CC[CH2][Sn]([CH2]CC)([O]C(=O)c1cccnc1SC)[O][Sn]([CH2]CC)([CH2]CC)[O]C(=O)c1cccnc1SC	0.23 µM	0.567 µM
Oc1ccc(CN2CCC(N3CCCCC3)CC2)c2cccnc12	5.32 µM	> 100 µM
CC[C@@]1(O)C(=O)OCc2c1cc1n(c2=O)Cc2c-1nc1cc3c(cc1c2CCl)OCO3	< 0.01 µM	0.426 µM
N#Cc1ccc(O)c(C2=NCC(c3cccc(Oc4ccccc4)c3)O2)c1 (configuration not stated)	0.42 µM	12.7 µM
CC1(C)OC2[C@@H](CNC(=O)NC(=O)NC(=O)CI)O[C@@H](n3cnc4c(NC(=O)Nc5ccccc5)ncnc43)[C@H]2O1 (some centres not stated)	0.907 µM	1.74 µM
COc1cc(C2=C(c3ccccc3)COC2=O)cc(OC)c1OC	18.6 µM	> 100 µM
COc1cc(C2NC(=O)c3ccccc3N2)ccc1OCCCCCOc1c(OC)cc(C2=NOC(c3cc(OC)c(OC)c(OC)c3)C2)cc1OC (configuration not stated)	16.7 µM	> 100 µM
CS(=O)(=O)c1ccc([C@H]2O[C@@H](CO)C[C@]2(O)c2ccc(S(C)(=O)=O)cc2)cc1	> 100 µM	> 100 µM
